Measured values reported in patent US20120280189A1, “PERFLU[…] GASEOUS DIELECTRICS” (priority 2010, published 2012).

System: mice
Assay: short-term inhalation test, acute toxicity
Assay type: in vivo
Conditions: mice exposed for four hours at 100,000 ppm in air

With `O=C(C(F)(F)C(F)(F)F)C(F)(C(F)(F)F)C(F)(F)F` [CF3CF2C(O)CF(CF3)2, 1,1,1,2,2,4,5,5,5-nonafluoro-4-trifluoromethyl-pentan-3-one] the acute toxicity was “low acute toxicity”.
